ChEMBL document CHEMBL1287720, “Inhibition of human neuraminidase 3 (NEU3) by C9-triazole derivatives of 2,3-didehydro-N-acetyl-neuraminic acid” (Bioorg Med Chem Lett, 2010)

What follows are compounds tested against T1, Sialidase-3 (Homo sapiens, UniProt Q9UQ49) (assay: Inhibition of human neuraminidase 3 assessed as inhibition of GM3 hydrolysis).
T1 sequence (Q9UQ49 whole entry): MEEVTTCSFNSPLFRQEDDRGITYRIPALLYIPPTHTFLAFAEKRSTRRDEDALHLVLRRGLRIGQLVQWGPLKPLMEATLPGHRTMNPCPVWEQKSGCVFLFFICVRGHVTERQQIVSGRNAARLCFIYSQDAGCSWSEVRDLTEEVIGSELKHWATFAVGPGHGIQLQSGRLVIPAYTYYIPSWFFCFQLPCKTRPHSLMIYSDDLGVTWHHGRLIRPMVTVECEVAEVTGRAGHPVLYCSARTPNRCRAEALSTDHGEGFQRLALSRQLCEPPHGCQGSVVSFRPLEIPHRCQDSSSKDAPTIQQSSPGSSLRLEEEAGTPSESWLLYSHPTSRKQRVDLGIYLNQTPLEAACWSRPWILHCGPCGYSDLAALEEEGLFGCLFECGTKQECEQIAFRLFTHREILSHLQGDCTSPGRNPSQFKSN

Structure (SMILES) | IC50 [µM]
CCOC(=O)C1=C[C@@H](OC(CC)CC)[C@H](NC(C)=O)[C@@H](N)C1 [OSELTAMIVIR] | > 10000

What follows are compounds tested against T1, Sialidase-3 (assay: Inhibition of human neuraminidase 3 assessed as inhibition of 4-methylumbelliferyl-alpha-D-N-acetylneuraminic acid hydrolysis).

IC50 [µM] | Structure (SMILES)
320 | CC(=O)N[C@H]1[C@H]([C@H](O)[C@H](O)CNC(=O)c2ccccc2)OC(C(=O)O)=C[C@@H]1O
> 1000 | CC(=O)NC[C@@H](O)[C@@H](O)[C@@H]1OC(C(=O)O)=C[C@H](O)[C@H]1NC(C)=O
43 | CC(=O)N[C@H]1[C@H]([C@H](O)[C@H](O)CO)OC(C(=O)O)=C[C@@H]1O [NEU5AC2EN]

Each compound was assayed against T1, Sialidase-3 (assay: not given).

IC50 [µM] | Structure (SMILES)
70 | CC(=O)N[C@H]1[C@H]([C@H](O)[C@H](O)CN=[N+]=[N-])OC(C(=O)O)=C[C@@H]1O
20 | CC(=O)N[C@H]1[C@H]([C@H](O)[C@H](O)Cn2cc(-c3ccccc3)nn2)OC(C(=O)O)=C[C@@H]1O
23 | CCCCCCc1cn(C[C@@H](O)[C@@H](O)[C@@H]2OC(C(=O)O)=C[C@H](O)[C@H]2NC(C)=O)nn1
300 | CCOc1cn(C[C@@H](O)[C@@H](O)[C@@H]2OC(C(=O)O)=C[C@H](O)[C@H]2NC(C)=O)nn1
130 | CCOC(OCC)c1cn(C[C@@H](O)[C@@H](O)[C@@H]2OC(C(=O)O)=C[C@H](O)[C@H]2NC(C)=O)nn1
45 | CC(=O)N[C@H]1[C@H]([C@H](O)[C@H](O)Cn2cc(COc3ccccc3)nn2)OC(C(=O)O)=C[C@@H]1O
300 | CC(=O)N[C@H]1[C@H]([C@H](O)[C@H](O)Cn2cc(CO)nn2)OC(C(=O)O)=C[C@@H]1O
400 | CC(=O)N[C@H]1[C@H]([C@H](O)[C@H](O)Cn2cc(CCO)nn2)OC(C(=O)O)=C[C@@H]1O
500 | CC(=O)N[C@H]1[C@H]([C@H](O)[C@H](O)Cn2cc(CCCO)nn2)OC(C(=O)O)=C[C@@H]1O
300 | CC(=O)N[C@H]1[C@H]([C@H](O)[C@H](O)Cn2cc(C(C)(C)O)nn2)OC(C(=O)O)=C[C@@H]1O
21 | [N-]=[N+]=NCC(=O)N[C@H]1[C@H]([C@H](O)[C@H](O)CO)OC(C(=O)O)=C[C@@H]1O
> 500 | O=C(Cn1cc(-c2ccccc2)nn1)N[C@H]1[C@H]([C@H](O)[C@H](O)CO)OC(C(=O)O)=C[C@@H]1O
> 500 | CCCCCCc1cn(CC(=O)N[C@H]2[C@H]([C@H](O)[C@H](O)CO)OC(C(=O)O)=C[C@@H]2O)nn1
> 500 | CCOc1cn(CC(=O)N[C@H]2[C@H]([C@H](O)[C@H](O)CO)OC(C(=O)O)=C[C@@H]2O)nn1
> 500 | CCOC(OCC)c1cn(CC(=O)N[C@H]2[C@H]([C@H](O)[C@H](O)CO)OC(C(=O)O)=C[C@@H]2O)nn1
> 500 | O=C(Cn1cc(COc2ccccc2)nn1)N[C@H]1[C@H]([C@H](O)[C@H](O)CO)OC(C(=O)O)=C[C@@H]1O
> 500 | O=C(Cn1cc(CO)nn1)N[C@H]1[C@H]([C@H](O)[C@H](O)CO)OC(C(=O)O)=C[C@@H]1O
> 500 | O=C(Cn1cc(CCO)nn1)N[C@H]1[C@H]([C@H](O)[C@H](O)CO)OC(C(=O)O)=C[C@@H]1O
> 500 | O=C(Cn1cc(CCCO)nn1)N[C@H]1[C@H]([C@H](O)[C@H](O)CO)OC(C(=O)O)=C[C@@H]1O
> 500 | CC(C)(O)c1cn(CC(=O)N[C@H]2[C@H]([C@H](O)[C@H](O)CO)OC(C(=O)O)=C[C@@H]2O)nn1
48 | CC(=O)N[C@H]1[C@H]([C@H](O)[C@H](O)CO)OC(C(=O)O)=C[C@@H]1O [NEU5AC2EN]

The compounds below were run against T1, Sialidase-3 (assay: Inhibition of human neuraminidase 3).

IC50 | Structure (SMILES)
Not Active | CC(=O)N[C@H]1[C@H]([C@H](O)[C@H](O)CO)O[C@@](O)(C(=O)O)C[C@@H]1O
